Nine molecules from PubChem BioAssay (NCI) can be followed below.

Among the test systems are SF-295 CNS; TK-10 renal; SN12C renal; UACC-62 melanoma; DU-145 prostate; SK-MEL-28 melanoma; OVCAR-4 ovarian; SW-620 colon; MALME-3M melanoma; SK-MEL-5 melanoma.
Experiment in all cases: NCI tumour cell line growth inhibition, 48 h

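Briefly, cells in 96-well plates were exposed to five compound concentrations for 48 h, and endpoints were estimated by linear interpolation. GI50 = concentration required for 50% inhibition of growth. TGI denotes the concentration required for complete inhibition of growth.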 Some results are limits rather than exact numbers.

In the case of `Cc1cccc(Oc2nccc(-c3c(-c4ccc(F)cc4)ncn3C3CCNCC3)n2)c1C`, the GI50 is 5.56 µM in the assay on SF-295 CNS; 7.16 µM in the assay with TK-10 renal; 9.16 µM in the assay with SN12C renal; 4.94 µM in the assay with UACC-62 melanoma; greater than 11.4 µM with DU-145 prostate; 4.65 µM in the assay with SK-MEL-28 melanoma. Further, the GI50 with OVCAR-4 ovarian is 7.9 µM; in the assay on SW-620 colon, 7.81 µM; with MALME-3M melanoma, 4.68 µM; in the assay on SK-MEL-5 melanoma, 3.61 µM. The TGI in the assay with SF-295 CNS was 14 µM; in the assay with TK-10 renal, greater than 16.3 µM; with SN12C renal, greater than 25 µM; with UACC-62 melanoma, 9.96 µM; in the assay with DU-145 prostate, greater than 16.3 µM; in the assay on SK-MEL-28 melanoma it was 9.48 µM. Further, the TGI is greater than 25 µM with OVCAR-4 ovarian, greater than 14.3 µM with SW-620 colon, 9.58 µM in the assay with MALME-3M melanoma and 6.92 µM in the assay on SK-MEL-5 melanoma.
In the case of `NS(=O)(=O)c1cc2c(cc1Cl)NC(Cc1ccccc1)NS2(=O)=O` (centres undefined), the TGI in the assay on SF-295 CNS, in the assay with TK-10 renal, in the assay on SN12C renal, with UACC-62 melanoma, in the assay on DU-145 prostate and in the assay with SK-MEL-28 melanoma was greater than 100 µM throughout. For the same molecule, the TGI in the assay on OVCAR-4 ovarian, in the assay on SW-620 colon, in the assay with MALME-3M melanoma and in the assay with SK-MEL-5 melanoma was greater than 100 µM throughout.
As to `NC(CSC(c1ccccc1)(c1ccccc1)c1ccc(Cl)cc1)C(=O)O` (centres undefined), the GI50 with SF-295 CNS is 0.216 µM; in the assay with TK-10 renal it was 13.5 µM; in the assay with SN12C renal, 0.54 µM; with UACC-62 melanoma it was 0.18 µM; in the assay on DU-145 prostate, 0.307 µM; in the assay with SK-MEL-28 melanoma, 2.46 µM. Further, the GI50 was 11.1 µM with OVCAR-4 ovarian, 0.19 µM in the assay on SW-620 colon, 1.97 µM in the assay on MALME-3M melanoma and 0.0612 µM with SK-MEL-5 melanoma. For the same molecule, the TGI with SF-295 CNS was 3.57 µM; with TK-10 renal, 64.7 µM; in the assay with SN12C renal it was greater than 57.8 µM; in the assay with UACC-62 melanoma it was 21.6 µM; in the assay on DU-145 prostate, 0.863 µM; in the assay with SK-MEL-28 melanoma, 44.3 µM. Further, the TGI is greater than 100 µM in the assay on OVCAR-4 ovarian, greater than 78.7 µM in the assay with SW-620 colon, 39.6 µM in the assay on MALME-3M melanoma and 14.1 µM in the assay with SK-MEL-5 melanoma.
For the molecule `ClC1=C(Cl)C(Cl)=C(Cl)C1=C/C=C/c1ccccc1`, the GI50 in the assay with SF-295 CNS is 0.311 µM; in the assay with TK-10 renal it was 0.562 µM; in the assay with SN12C renal it was 0.407 µM; in the assay on UACC-62 melanoma it was 0.191 µM; in the assay with DU-145 prostate, 0.42 µM; in the assay on SK-MEL-28 melanoma it was 0.249 µM. Besides, the GI50 in the assay with OVCAR-4 ovarian is 0.337 µM; with SW-620 colon it was 0.299 µM; with MALME-3M melanoma it was 0.167 µM; in the assay on SK-MEL-5 melanoma it was 0.196 µM. Besides, the TGI is 1.02 µM with SF-295 CNS; 2.04 µM in the assay on TK-10 renal; 2.15 µM with SN12C renal; 0.467 µM in the assay on UACC-62 melanoma; 1.32 µM in the assay on DU-145 prostate; 0.597 µM in the assay on SK-MEL-28 melanoma. Moreover, the TGI in the assay on OVCAR-4 ovarian stood at 19.8 µM; with SW-620 colon, 0.869 µM; in the assay on MALME-3M melanoma, 0.499 µM; in the assay on SK-MEL-5 melanoma, 0.563 µM.
Regarding `Cc1ccc(NC(=O)NC(=O)c2ccc([N+](=O)[O-])cc2[N+](=O)[O-])cc1Oc1ncc(Cl)cn1`, the TGI with SF-295 CNS was 43.5 µM; in the assay with TK-10 renal it was greater than 100 µM; in the assay with SN12C renal, 16.6 µM; in the assay with UACC-62 melanoma, 21 µM; in the assay with DU-145 prostate, greater than 100 µM; with SK-MEL-28 melanoma, 24.1 µM. Besides, the TGI in the assay on OVCAR-4 ovarian worked out at 26 µM; with SW-620 colon, 12.6 µM; with MALME-3M melanoma it was 22.3 µM; with SK-MEL-5 melanoma, 0.819 µM.
On to `C=C1C[C@](OC)([C@H](O)C(=O)N[C@@H](OC)[C@@H]2C[C@@H](O)C(C)(C)[C@@H](C[C@@H](COC)OC)O2)O[C@H](C)[C@@H]1C`, for which the GI50 with SF-295 CNS is 0.000353 µM; in the assay with TK-10 renal it was 0.00141 µM; in the assay on SN12C renal, 0.00174 µM; in the assay with UACC-62 melanoma it was 0.00153 µM; in the assay on DU-145 prostate, 0.00145 µM; in the assay on SK-MEL-28 melanoma it was 0.00129 µM. For the same molecule, the figures for the GI50 in the assay with OVCAR-4 ovarian, in the assay on SW-620 colon and with MALME-3M melanoma were 0.00227 µM, 0.00157 µM and 0.000693 µM, respectively. Moreover, the TGI in the assay on SF-295 CNS amounted to 0.00181 µM; in the assay with TK-10 renal, 0.00388 µM; with SN12C renal it was 0.00638 µM; in the assay on UACC-62 melanoma, 0.00524 µM; with DU-145 prostate, 0.00496 µM; in the assay with SK-MEL-28 melanoma, 0.00383 µM. The TGI in the assay on OVCAR-4 ovarian is 0.0198 µM; in the assay on SW-620 colon it was 0.00508 µM; in the assay on MALME-3M melanoma, 0.00343 µM; in the assay on SK-MEL-5 melanoma, 0.000262 µM.
Regarding `COc1ccccc1-n1c(-c2cc(O)ccc2C)cn2c3c(=O)[nH]c(=O)n(C)c3nc12`, the GI50 in the assay on SF-295 CNS was 5.34 µM; with TK-10 renal, 13.3 µM; in the assay with SN12C renal, 4.85 µM; with UACC-62 melanoma it was greater than 100 µM; with DU-145 prostate, 7.04 µM; in the assay on SK-MEL-28 melanoma, greater than 100 µM. Moreover, the GI50 in the assay with OVCAR-4 ovarian is greater than 100 µM; in the assay with SW-620 colon it was greater than 100 µM; in the assay on MALME-3M melanoma it was greater than 100 µM; in the assay with SK-MEL-5 melanoma it was 53.2 µM. Moreover, the TGI was greater than 100 µM with SF-295 CNS; 48.7 µM in the assay with TK-10 renal; greater than 100 µM with SN12C renal; greater than 100 µM in the assay on UACC-62 melanoma; greater than 100 µM with DU-145 prostate; greater than 100 µM with SK-MEL-28 melanoma. Also, the TGI in the assay with OVCAR-4 ovarian, in the assay with SW-620 colon, in the assay on MALME-3M melanoma and in the assay on SK-MEL-5 melanoma was greater than 100 µM each time.
Regarding `O=C(O)C1C(C(=O)Nc2ccc3c(c2)Cc2ccccc2-3)C2(Cl)C(Cl)=C(Cl)C1(Cl)C2(Cl)Cl` (centres undefined), the TGI was greater than 100 µM in the assay with SF-295 CNS; 68.1 µM in the assay with TK-10 renal; greater than 100 µM in the assay with SN12C renal; 31.1 µM in the assay with UACC-62 melanoma; greater than 100 µM in the assay with DU-145 prostate; 46.3 µM with SK-MEL-28 melanoma. Moreover, the TGI in the assay on OVCAR-4 ovarian was greater than 100 µM; in the assay on SW-620 colon, 64.5 µM; in the assay on MALME-3M melanoma it was 44.6 µM; with SK-MEL-5 melanoma, 27.5 µM.
Turning to `CC(C)[C@@]12C[C@@H](OC(=O)[C@H]3CO3)[C@@](C)(O1)[C@@H]1CC[C@@H](C)[C@H]1[C@@H]2OC(=O)/C=C/c1ccccc1`, the GI50 in the assay with SF-295 CNS is 15.3 µM; in the assay with TK-10 renal, 33.9 µM; with SN12C renal, 11.9 µM; in the assay with UACC-62 melanoma it was 13.6 µM; in the assay with DU-145 prostate, 31.5 µM; with SK-MEL-28 melanoma it was 18.7 µM. Besides, the GI50 in the assay with OVCAR-4 ovarian was 11.5 µM; in the assay on SW-620 colon, 29.9 µM; with MALME-3M melanoma, 13.9 µM; in the assay on SK-MEL-5 melanoma, 14.9 µM. Further, the TGI in the assay with SF-295 CNS was 35.5 µM; with TK-10 renal it was greater than 100 µM; in the assay on SN12C renal, 41.2 µM; with UACC-62 melanoma it was 35.7 µM; with DU-145 prostate, greater than 100 µM; in the assay on SK-MEL-28 melanoma, 57.2 µM. Besides, the TGI is 30.2 µM in the assay with OVCAR-4 ovarian, greater than 100 µM in the assay with SW-620 colon, 30 µM with MALME-3M melanoma and 28.5 µM in the assay on SK-MEL-5 melanoma.
